Reference: US9260446B2, “Synthetic methods for spiro-oxindole compounds” (Xenon Pharmaceuticals Inc., priority 2009, dated 2016)

Biological target: hNav1.7 (Homo sapiens (Human), UniProt Q15858)
Conditions: voltage-gated sodium channel blocking activity against hNav1.7

Sequence of hNav1.7 (Q15858 whole entry): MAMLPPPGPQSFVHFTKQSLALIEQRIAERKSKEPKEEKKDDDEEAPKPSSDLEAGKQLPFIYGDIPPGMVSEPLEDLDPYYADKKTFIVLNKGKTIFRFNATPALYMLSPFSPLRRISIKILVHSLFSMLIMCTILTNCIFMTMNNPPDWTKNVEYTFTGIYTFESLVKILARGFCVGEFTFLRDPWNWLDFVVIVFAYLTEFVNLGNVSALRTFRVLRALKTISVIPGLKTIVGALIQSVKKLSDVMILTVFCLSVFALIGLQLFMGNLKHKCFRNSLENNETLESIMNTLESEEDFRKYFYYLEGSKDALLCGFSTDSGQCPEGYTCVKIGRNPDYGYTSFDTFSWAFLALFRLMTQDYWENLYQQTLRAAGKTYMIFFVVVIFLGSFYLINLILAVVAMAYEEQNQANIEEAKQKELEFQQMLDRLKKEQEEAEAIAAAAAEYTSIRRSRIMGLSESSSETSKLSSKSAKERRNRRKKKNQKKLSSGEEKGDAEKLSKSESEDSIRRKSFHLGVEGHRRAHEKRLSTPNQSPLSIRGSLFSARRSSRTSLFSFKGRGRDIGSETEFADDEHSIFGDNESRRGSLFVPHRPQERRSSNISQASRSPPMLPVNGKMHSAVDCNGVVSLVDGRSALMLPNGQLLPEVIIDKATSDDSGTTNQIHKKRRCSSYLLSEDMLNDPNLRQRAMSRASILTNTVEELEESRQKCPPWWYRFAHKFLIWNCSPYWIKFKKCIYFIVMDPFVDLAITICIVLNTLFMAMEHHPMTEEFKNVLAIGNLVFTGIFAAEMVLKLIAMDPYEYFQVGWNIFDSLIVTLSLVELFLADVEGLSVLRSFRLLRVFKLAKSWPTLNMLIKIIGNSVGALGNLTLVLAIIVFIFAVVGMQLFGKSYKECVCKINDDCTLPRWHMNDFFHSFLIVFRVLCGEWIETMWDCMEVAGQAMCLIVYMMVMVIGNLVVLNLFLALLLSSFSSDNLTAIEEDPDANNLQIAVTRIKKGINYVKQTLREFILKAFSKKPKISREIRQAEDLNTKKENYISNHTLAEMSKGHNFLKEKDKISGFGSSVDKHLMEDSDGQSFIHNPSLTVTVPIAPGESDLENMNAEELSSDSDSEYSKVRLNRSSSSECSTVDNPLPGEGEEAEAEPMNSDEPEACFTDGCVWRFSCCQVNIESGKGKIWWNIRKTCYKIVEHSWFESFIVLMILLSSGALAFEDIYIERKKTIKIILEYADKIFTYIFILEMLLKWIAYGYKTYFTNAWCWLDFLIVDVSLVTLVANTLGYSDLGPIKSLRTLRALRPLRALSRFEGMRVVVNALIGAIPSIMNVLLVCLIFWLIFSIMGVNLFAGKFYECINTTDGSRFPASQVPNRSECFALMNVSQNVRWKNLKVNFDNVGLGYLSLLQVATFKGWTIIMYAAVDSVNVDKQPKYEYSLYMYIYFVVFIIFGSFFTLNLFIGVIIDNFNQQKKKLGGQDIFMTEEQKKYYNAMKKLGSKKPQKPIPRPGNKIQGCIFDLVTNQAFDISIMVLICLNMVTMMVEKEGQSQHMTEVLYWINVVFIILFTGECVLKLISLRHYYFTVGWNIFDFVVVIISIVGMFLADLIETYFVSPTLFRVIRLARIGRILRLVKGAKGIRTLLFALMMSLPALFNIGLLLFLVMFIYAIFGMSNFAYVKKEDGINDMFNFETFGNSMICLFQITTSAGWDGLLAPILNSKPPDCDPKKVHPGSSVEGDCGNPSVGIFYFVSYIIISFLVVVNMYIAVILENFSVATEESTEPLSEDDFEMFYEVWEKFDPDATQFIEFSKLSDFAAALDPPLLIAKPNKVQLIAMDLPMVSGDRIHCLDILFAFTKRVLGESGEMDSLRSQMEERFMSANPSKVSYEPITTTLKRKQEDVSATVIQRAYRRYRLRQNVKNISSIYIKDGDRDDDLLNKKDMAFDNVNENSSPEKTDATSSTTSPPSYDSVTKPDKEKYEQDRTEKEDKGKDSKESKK

Row | Compound | IC50 [nM]
1 | O=C1N(Cc2ccc(C(F)(F)F)o2)c2ccccc2C12COc1cc3c(cc12)OCO3 (centres unmarked) [(I), 1′-{[5-(trifluoromethyl)-2-furyl]methyl}spiro[furo[2,3-f][1,3]benzodioxole-7,3′-indol]-2′(1′H)-one] | 7
2 | O=C1N(Cc2ccc(C(F)(F)F)o2)c2ccccc2[C@@]12COc1cc3c(cc12)OCO3 [(I-R), (R)-1′-{[5-(trifluoromethyl)furan-2-yl]methyl}spiro[furo[2,3-f][1,3]-benzodioxole-7,3′-indol]-2′(1′H)-one] | 4200
3 | O=C1N(Cc2ccc(C(F)(F)F)o2)c2ccccc2[C@]12COc1cc3c(cc12)OCO3 [(I-S), (S)-1′-{[5-(trifluoromethyl)furan-2-yl]methyl}spiro-[furo[2,3-f][1,3]benzodioxole-7,3′-indol]-2′(1′H)-one] | 3
4 | O=C1N(Cc2ncccc2C(F)(F)F)c2ccccc2C12COc1cc3c(cc12)OCCO3 (centres unmarked) [(II), 1′-{[3-(trifluoromethyl)pyridin-2-yl]methyl}-2,3-dihydrospiro[furo[2,3-g][1,4]benzodioxine-8,3′-indol]-2′(1′H)-one] | 15
5 | O=C1N(Cc2ncccc2C(F)(F)F)c2ccccc2[C@]12COc1cc3c(cc12)OCCO3 [(II-S), (S)-1′-{[3-(trifluoromethyl)pyridin-2-yl]methyl}-2,3-dihydrospiro[furo[2,3-g][1,4]benzodioxine-8,3′-indol]-2′(1′H)-one] | 5
